Test results: patent US9096538B2, “Pharmaceutical comprising PPAR agonist” (Senju Pharmaceutical Co., Ltd., priority 2005, dated 2015)

What was measured:
[1] = tested on: rabbit corneal epithelial cell; assay: Test Example 2: increase in cell number, cultured rabbit corneal epithelial cell, 120 hours (Cell Counting Kit-8); format: cell-based; conditions: no addition group = 100%, average ± standard deviation, N = 5
Procedure: A male rabbit (Japanese white, weight: about 1.5 kg, […] LABES Co., Ltd.) was used. The experimental animal was used according to the International Guiding Principles for Biomedical Research Involving Animals.
A rabbit corneal epithelial cell was prepared using the same process as that of (Test example 1).
As the test substance, the following compounds were used. • PPARδ agonist: L-165041 (Sigma-Aldrich) and GW-501516 (Alexis)
For studying the effect of promoting cell proliferation by each test substance, a culture medium prepared by removing a mouse-derived epithelial growth factor (mEGF) attached to RCGM2, from RCGM2, was used as a basal medium, while as a positive control for confirming the effect of promoting cell proliferation, a medium with an mEGF added thereto (basal medium+10 ng/mL mEGF) was used according to instructions of an RCGM2 preparation protocol.
Collagen treatment of the culture dish was performed using the same process as that of (Test Example1).
In the test, a rabbit corneal epithelial cell which had been cultured to subconfluent in a culture dish having a diameter of 10 cm was used. After the culture medium was removed, the bottom of the culture dish was washed two times using D-PBS, to this was added 1 mL of trypsin-EDTA, this was incubated at 37° C. for 5 minutes and thereby, the cell was peeled from the bottom of the culture dish. After incubation, 9 mL of MEM containing 10% FBS was added to the culture dish to stop the enzymatic reaction, and this was subjected to centrifugation at room temperature and 1,500 rpm for 5 minutes to obtain a corneal epithelial cell layer. To the resulting cell was added an appropriate amount of RCGM2 to a cell concentration of 1×10^5 cells/mL to suspend the cell. Each 64 μL of this cell suspension was dispensed in each well at the cell number per bottom area (0.32 cm^2) of the collagen-treated 96-well culture dish for tissue culture of […]. […] After 24 hours from cell seeding, the culture medium was discarded, and each 100 μL of the following culture media were freshly dispensed into each well of the culture dish. • [1] Only basal medium (no addition group) • [2] Basal medium+mEGF (final concentration: 10 ng/mL; positive control group) • [3] Basal medium+L-165041 (final concentration: 0.1 μM and 1 μM) • [4] Basal medium+GW-501516 (final concentration: 0.01 μM and 0.1 μM)
The culture supernatant of each well was removed every 48 hours from exchange of the culture medium containing a test substance, and each 100 μL of the freshly prepared culture medium was dispensed into each well.

[2] = tested on: monkey meibomian gland epithelial cell; assay: Test Example 3: increase in cell number, cultured monkey meibomian gland epithelial cell (Cell Counting Kit-8); format: cell-based, cynomolgus monkey; conditions: 48 + 48 hours; for Cell proliferation (%): no addition group = 100%, average ± standard deviation, N = 5
Procedure: A female cynomolgus monkey (Environmental Biological Life Science Research Center) was used. The experimental animal was used according to the International Guiding Principles for Biomedical Research Involving Animals.
A meibomian gland epithelial cell was prepared from a monkey eyelid. An eyelid was isolated, and stored in Dulbecco's phosphate buffered saline (D-PBS; Invitrogen), and this was transferred to a clean bench. The following cell preparation procedures were all performed sterilely.
After the isolated eyelid was immersed in 80% ethanol for 30 seconds, the eyelid was washed with D-PBS with 1% penicillin-streptomycin (Invitrogen) added thereto three times, and transferred to a minimum essential medium (MEM; Invitrogen). A fat tissue and a muscle tissue surrounding a meibomian gland tissue were removed under a stereomicroscope, and this was transferred to MEM containing 0.475 U/mL of collagenase A (Roche Diagnostics) and 2.4 U/mL of dispase II (Roche Diagnostics), and incubated at 37° C. overnight. After completion of incubation, the enzyme-treated tissue was placed again under the stereomicroscope, eyelashes and an eyelid connective tissue were removed, and a meibomian gland tissue was isolated. To the isolated gland tissue was added 1 mL of trypsin-EDTA (Invitrogen), and this was incubated at 37° C. for 5 minutes. After incubation, to this was added 9 mL of MEM containing 10% FBS to stop the enzymatic reaction, then, suction and exhaustion were repeated five times using a 10 mL pipette and, further, five times using an injection syringe equipped with a 21 G injection needle to disperse tissue-constituting cells. […] The cell suspension which had passed through the filter was recovered in a 50 mL centrifuge tube, and subjected to centrifugation at room temperature and 1,500 rpm for 5 minutes. To a cell layer containing an objective cell obtained by centrifugation was added 80 μL of D-PBS containing 0.5% bovine serum albumin (BSA; Sigma-Aldrich) to sufficiently suspend the cell, to this was added 20 μL of Anti-Fibroblast Microbeads (Militenyi Biotec), and this was allowed to stand at room temperature for 30 minutes. After completion of the reaction with an antibody, to this was added 2 mL of D-PBS containing 0.5% BSA, and this was subjected again to centrifugation at room temperature and 1,500 rpm for 5 minutes. To a cell layer containing an objective cell obtained by centrifugation was added 1 mL of D-PBS containing 0.5% BSA to sufficiently suspend the cell, and this was added dropwise to an LD column (Militenyi Biotec) equilibrated in advance using a column washing solution (D-PBS containing 2 mM EDTA (Dojindo Laboratories) and 0.5% BSA). Then, 2 mL of the column washing solution was added dropwise to the LD column. […] The cell recovered in the centrifuge tube was subjected again to centrifugation at room temperature and 1,500 rpm for 5 minutes to remove the supernatant. To this precipitation was added 1 mL of Defined Keratinocyte-Serum Free Medium (DK-SFM; Invitrogen) to suspend the cell and thereby, a meibomian gland epithelial cell suspension was prepared. The prepared cell was seeded on a culture dish (IWAKI) for cell culturing having a diameter of 3.5 cm which had been coated with a type I collagen solution (Nitta Gelatin Inc.) in advance, and to which 3 mL of DK-SFM had been added. The seeded cell was cultured in an incubator (SANYO) set at 37° C., 5% CO2, 95% air, and 100% humidity, and the culture medium was exchanged with a fresh culture medium every 48 hours until the test day.
Each test substance was dissolved in ethanol (Wako Pure Chemical Industries, Ltd.) to a 200-fold concentration of a final concentration in the culture medium, and this was stored at −80° C. until immediately before use.
As a culture dish for a cell proliferation promotion test, a 96-well culture dish for tissue culture (Corning) was used.

In the case of CCCc1c(OCCCOc2ccc(OCC(=O)O)cc2)ccc(C(C)=O)c1O [L-165041, (4-(3-(4-acetyl-3-hydroxy-2-propyl)phenoxy)propoxyphenoxy)acetic acid], the “Cell proliferation (%)” value ([1]; 10^−6 M) is reported as 198.6 ± 26.7%, the “Cell proliferation (%)” value ([1]; 10^−7 M) is reported as 242.5 ± 36.2% and the “Cell proliferation (%)” value ([2]; 10^−6 M) is reported as 142.8 ± 5.4%. For the same compound, the “Cell proliferation (%)” value ([2]; 10^−7 M) was 136.1 ± 4.7% and the “cell proliferation compared to the no addition group (in words)” value ([2]; p<0.01 where significant) was “significantly higher than in the no addition group”.
